Consider eleven molecules from patent publication US11116847B2, “Methylene carbamate linkers for use with targeted-drug conjugates” (Seagen Inc., priority 2013, dated 2021).

Data set [1] can be described thus: In vitro stability of drug-linker / model drug-linker compounds to spontaneous hydrolysis of the methylene carbamate unit (LC/MS). The settings on record: for Relative Degradation Half-life Observed by LC/MS: 0.1M PBS; for Relative Degradation Half-life Observed by LC/MS / drug-linker degradation: pH 7.4, at 37° C.; for drug-linker degradation: after 14 da incubation in 0.1 M PBS; for comparative hydrolytic stability: PBS, 8.26 compared with 6.4, 5.6 compared with model compound (8.23); for comparative hydrolytic stability / stability to spontaneous hydrolysis when R is dimethylaminoethyl instead of ethyl / degradation / stability to spontaneous hydrolysis: pH 7.4, 37° C.; for stability to spontaneous hydrolysis when R is dimethylaminoethyl instead of ethyl / degradation / stability to spontaneous hydrolysis: 0.1 M phosphate buffered saline; for stability to spontaneous hydrolysis when R is dimethylaminoethyl instead of ethyl: 7 days, compared with 8.26; for degradation / stability to spontaneous hydrolysis: tested every 24 h for 7 days by LC/MS. It counts as physicochemical. As to the method: General procedure for testing Drug-Linker stability: Final N-acetyl products of Example 8 were dissolved in 1 mL 0.1 M phosphate buffered saline, pH 7.4, in a vial at 37° C. LC/MS samples were prepared by adding 2 μL aliquots of incubated compound solution to 100 μL of MeOH in an HPLC vial. Each conjugate was tested every 24 h for 7 days.
For evaluation of in vitro stability of Compound 7.7 this Drug-Linker compound was converted to its N-acetylcysteine conjugate (NAC-7.7), which provide a model LDC with NAC serving as a surrogate for a targeting antibody Ligand Unit. For that purpose eight microliters of a 8 mM DMSO stock of Drug-Linker Compound was diluted in phosphate-buffered saline (0.39 mL). The maleimide moiety in each Drug-Linker Compound was then quenched with N-acetylcysteine (0.8 μL, 100 mM stock), and the material was stored in a 37° C. incubator. Aliquots were drawn at various time points out to 14 days and analyzed by UPLC-MS for drug-linker integrity.
Stability testing was conducted as in Example 9.

The subject of data set [2] is Type B-1 β-glucuronidase (bovine liver). Put plainly: Release of free drug or model drug from NAC-conjugates after glucuronidase activation of the Self-immolative Assembly Unit. As to conditions: NAC-conjugate corresponding to the named model drug-linker compound (N-acetyl cap replaced by maleimide Stretcher quenched with N-acetyl-cysteine). The class given is biochemical. As to the method: Release of free drug from the NAC-7.7 conjugate derived from the Drug-Linker Compound of Example 7 was evaluated in the following manner: An enzyme stock was prepared by dissolving Type B-1 β-glucuronidase (bovine liver, 1,644,000 units/g solid) in pH 5 100 mM sodium acetate buffer to a working concentration of 0.5 mg/mL. Five microliters of 8 mM drug-linker stock of compound 7.7 was added to 12.5 μL DMSO, 26.3 μL of phosphate-buffered saline, and 6.75 μL of 100 mM N-acetylcysteine. The quenched linker was then diluted with 0.45 mL enzyme stock. The enzymatic reaction was then incubated at 37 C, with multiple time points taken at 1, 10, 20, and 40 minutes. Each time point sample consisted of 20 μL reaction diluted in 5 volumes ice cold methanol and cooled to −20 C until all the samples were withdrawn. The samples were then centrifuged at 12,000 g for 5 minutes and 20 μL of supernatant was analyzed by UPLC-MS. After 20 minutes of enzyme digestion the drug-linker was completely consumed. By 40 minutes, the majority of the material was free drug, indicating effectively complete drug release from the linker system.
Releases of stand-in “free drugs” from NAC conjugates incorporating the Drug-Linker moieties from Example 8 were also studied. Those compounds were prepared by replacing the N-acetyl capping group with N-3-(propionoyl)-maleimide, which introduces a maleimide Stretcher Unit precursor, in the amino intermediates used for the preparation of model drug linker compounds 8.23-8.30. The maleimide moieties are then quenched with N-acetyl-cysteine as previously described for the preparation of NAC-7.7. The NAC-conjugates derived from the amino intermediates of Example 8 have the generalized structure of
[drawing 194] wherein T* is the oxygen or sulfur heteroatom from the hydroxyl or sulfhydryl functional group of the primary alcohol or thiol-containing compound or the oxygen heteroatom from the hydroxyl functional group of the secondary or tertiary alcohol-containing compound or from the phenolic-containing compound of Table 3.

Structures are written as SMILES.

A word on the half-life: it is the time in which the quantity being followed falls by half. Lower therefore signals rapid decline.

Consider `CCN(CO[C@H]1C2[C@H]3O[C@H]3[C@H]3C4=C(CC[C@]3(C)[C@@]23O[C@H]3[C@@H]2O[C@]12C(C)C)C(=O)OC4)C(=O)OCc1ccc(O[C@@H]2OC(C(=O)O)[C@@H](O)[C@H](O)C2O)c(NC(=O)CCNC(=O)CCN2C(=O)C=CC2=O)c1` (stereo partly shown) [Compound 4.5], for which, in data set [1], the “Relative Degradation Half-life Observed by LC/MS” value is “None Observed” and the drug-linker degradation result is listed as “No indication of drug-linker degradation”.
Regarding `CO[C@H]1C[C@@H]2CC[C@@H](C)[C@@](O)(O2)C(=O)C(=O)N2CCCC[C@H]2C(=O)O[C@H]([C@@H](C)C[C@H]2CC[C@@H](OCCOCNC(=O)OCc3ccc(NC(=O)[C@H](CCCNC(N)=O)NC(=O)[C@@H](NC(=O)CCN4C(=O)C=CC4=O)C(C)C)cc3)[C@H](OC)C2)CC(=O)[C@H](C)/C=C(\C)[C@@H](O)[C@@H](OC)C(=O)[C@H](C)C[C@H](C)/C=C/C=C/C=C/1C` [Compound 5.6], in data set [1], the “Relative Degradation Half-life Observed by LC/MS” value amounted to 170 h, the comparative hydrolytic stability entry is listed as “even better hydrolytic stability” and the drug-linker degradation entry is on record as “No indication of drug-linker degradation”.
Take `C=CC[C@@H]1/C=C(\C)C[C@H](C)C[C@H](OC)[C@H]2O[C@@](O)(C(=O)C(=O)N3CCCC[C@H]3C(=O)O[C@H](/C(C)=C/C3CC[C@@H](OCNC(=O)OCc4ccc(NC(=O)[C@H](CCCNC(N)=O)NC(=O)[C@@H](NC(=O)CCN5C(=O)C=CC5=O)C(C)C)cc4)[C@H](OC)C3)[C@H](C)[C@@H](O)CC1=O)[C@H](C)C[C@@H]2OC` (stereo partly shown) [Compound 6.4]: in data set [1], the “Relative Degradation Half-life Observed by LC/MS” value is listed as “None Observed”, the comparative hydrolytic stability result is “acceptable stability” and the drug-linker degradation result is on record as “No indication of drug-linker degradation”. Besides, the half-life in data set [1] (phosphate buffered saline, 0.1 M PBS buffer, pH 7.4 at 37° C.) was 10 h.
For the molecule `CCN(COCCc1ccccc1)C(=O)OCc1ccc(O[C@@H]2O[C@H](C(=O)O)[C@@H](O)[C@H](O)[C@H]2O)c(NC(C)=O)c1` [Compound 8.25, (2S,3S,4S,5R,6S)-6-(2-acetamido-4-(((ethyl(phenethoxymethyl)carbamoyl)oxy)methyl)phenoxy)-3,4,5-trihydroxytetrahydro-2H-pyran-2-carboxylic acid], in data set [1], the “Relative Degradation Half-life Observed by LC/MS” value was 170 h, the “stability to spontaneous hydrolysis when R is dimethylaminoethyl instead of ethyl” value is “same excellent stability” and the “degradation / stability to spontaneous hydrolysis” value (shortened to “degradation / stability”) is “suitable stability”. For the same molecule, in data set [2], the “Time to 100% Release” value came to 15 min.
Turning to `CCN(COC(C)Cc1ccccc1)C(=O)OCc1ccc(O[C@@H]2O[C@H](C(=O)O)[C@@H](O)[C@H](O)[C@H]2O)c(NC(C)=O)c1` (stereo partly drawn) [Compound 8.26, (2S,3S,4S,5R,6S)-6-(2-acetamido-4-(((ethyl(((-phenylpropan-2-yl)oxy)methyl)carbamoyl)oxy)methyl)phenoxy)-3,4,5-trihydroxytetrahydro-2H-pyran-2-carboxylic acid], in data set [1], the “Relative Degradation Half-life Observed by LC/MS” value was “None Observed”, the “degradation / stability” value is “no signs of degradation” and the comparative hydrolytic stability entry is “increase stability”. Also, the “Time to 100% Release” value in data set [2] is 45 min.
Regarding `CCN(COC(C)(C)Cc1ccccc1)C(=O)OCc1ccc(O[C@@H]2O[C@H](C(=O)O)[C@@H](O)[C@H](O)[C@H]2O)c(NC(C)=O)c1` [Compound 8.27, (2S,3S,4S,5R,6S)-6-(2-acetamido-4-(((ethyl(((2-methyl-1-phenylpropan-2-yl)oxy)methyl)carbamoyl)oxy)methyl)phenoxy)-3,4,5-trihydroxytetrahydro-2H-pyran-2-carboxylic acid], in data set [1], the “Relative Degradation Half-life Observed by LC/MS” value came to 170 h, the “stability to spontaneous hydrolysis when R is dimethylaminoethyl instead of ethyl” value is “same excellent stability” and the “degradation / stability” value is listed as “suitable stability”. The “Time to 100% Release” value in data set [2] was 15 min.
As for `CCN(COc1cccc2ccccc12)C(=O)OCc1ccc(O[C@@H]2O[C@H](C(=O)O)[C@@H](O)[C@H](O)[C@H]2O)c(NC(C)=O)c1` [Compound 8.28, (2S,3S,4S,5R,6S)-6-(2-acetamido-4-(((ethyl((naphthalen-1-yloxy)methyl)carbamoyl)oxy)methyl)phenoxy)-3,4,5-trihydroxytetrahydro-2H-pyran-2-carboxylic acid], in data set [1], the “Relative Degradation Half-life Observed by LC/MS” value is listed as “None Observed” and the “degradation / stability” value is “excellent stability”. Moreover, the “Time to 100% Release” value in data set [2] was found to be 25 min.
Consider `CCN(CSCCc1ccccc1)C(=O)OCc1ccc(O[C@@H]2O[C@H](C(=O)O)[C@@H](O)[C@H](O)[C@H]2O)c(NC(C)=O)c1` [Compound 8.29, (2S,3S,4S,5R,6S)-6-(2-acetamido-4-(((ethyl((phenethylthio)methyl)carbamoyl)oxy)methyl)phenoxy)-3,4,5-trihydroxytetrahydro-2H-pyran-2-carboxylic acid], for which, in data set [1], the “Relative Degradation Half-life Observed by LC/MS” value is “None Observed” and the “degradation / stability” value is listed as “no sign of degradation”. The “Time to 100% Release” value in data set [2] was 40 min.
For the molecule `CC(=O)Nc1cc(COC(=O)N(CCN(C)C)COCCc2ccccc2)ccc1O[C@@H]1O[C@H](C(=O)O)[C@@H](O)[C@H](O)[C@H]1O` [Compound 8.30, (2S,3S,4S,5R,6S)-6-(2-acetamido-4-((((2-(dimethylamino)ethyl)(phenethoxymethyl)carbamoyl)oxy)methyl)phenoxy)-3,4,5-trihydroxytetrahydro-2H-pyran-2-carboxylic acid], in data set [1], the “Relative Degradation Half-life Observed by LC/MS” value is “None Observed”. In data set [2], the “Time to 100% Release” value stood at 15 min.
For the molecule `CC(=O)Nc1cc(COC(=O)N(CCN(C)C)COC(C)(C)Cc2ccccc2)ccc1O[C@@H]1O[C@H](C(=O)O)[C@@H](O)[C@H](O)[C@H]1O` [Compound 8.31, (2S,3S,4S,5R,6S)-6-(2-acetamido-4-((((2-(dimethylamino)ethyl)(((2-methyl-1-phenylpropan-2-yl)oxy)methyl)carbamoyl)oxy)methyl)phenoxy)-3,4,5-trihydroxytetrahydro-2H-pyran-2-carboxylic acid], the “Relative Degradation Half-life Observed by LC/MS” value in data set [1] is recorded as “None Observed”. Moreover, in data set [2], the “Time to 100% Release” value was 15 min.
`COCCOCCOCCOCCOCCOCCOCCOCCN(COC(C)Cc1ccccc1)C(=O)OCc1ccc(O[C@@H]2O[C@H](C(=O)O)[C@@H](O)[C@H](O)[C@H]2O)c(NC(C)=O)c1` (stereo partly drawn) [Compound 8.32, (2S,3S,4S,5R,6S)-6-(2-acetamido-4-(3-oxo-4-(((1-phenylpropan-2-yl)oxy)methyl)-2,7,10,13,16,19,22,25,28-nonaoxa-4-azanonacosyl)phenoxy)-3,4,5-trihydroxytetrahydro-2H-pyran-2-carboxylic acid]: in data set [1], the “Relative Degradation Half-life Observed by LC/MS” value is “None Observed” and the “degradation / stability” value is listed as “no signs of degradation”. In addition, in data set [2], the “Time to 100% Release” value came out at 15 min.
